According to article PMC6408865 (Pharmacology Research & Perspectives, 2019):
Where two headings read alike, the source gives them in different places.

What was measured:
[1] = Population PK model of AZD7687 plasma concentrations in SAD and MAD studies (2-compartment, first order absorption); format: in vivo; details: human
Method: Full details of the study protocols have previously been reported by Denison et al14 for Single Ascending Dose study (SAD) and Denison et al16 for the Multiple Ascending Dose Study (MAD). In brief, in the SAD, 80 healthy male subjects were enrolled.
(§1) Full description of all the PK models is provided in supplementary section S1.
Models were implemented using nonlinear mixed effects modeling in Phoenix NLME, version 1.3 (Certara). The analysis was conducted using the first order conditional estimation (FOCE‐ELS) during the sequential and simultaneous analysis (the expectation maximization method (QRPEM) was used for the simultaneous fitting of the human data due to speed and ability to converge).
Inter-individual variability was estimated on CL, V1, V2 and ka parameters according to a log-normal distribution of individual parameters. […] Residual error was characterized with a proportional plus additive error model.

[2] = PK model of AZD7687 plasma concentrations during rat OLTT (1-compartment); format: in vivo
Method: (§2) Full description of the OLTT in the rat has been published previously.17 In brief, 53 male Han‐Wistar rats (∼230 g), previously maintained on a chow diet, were fasted for 14 hours. […] Six remaining animals were kept untreated and served as naive controls.
as §1
(§3) As PK data was only collected for 11h post dose, the ability to fit complex PK models was limited. The aim of the PK fitting was to describe the kinetics of the compound during the OLTT instead of a full characterization of the PK properties of the compound. […] Inter-individual variability was estimated on CL and V parameters according to a log-normal distribution of individual parameters. […] Residual error was characterized with a proportional plus additive error model.

[3] = PK model of AZD7687 plasma concentrations during mouse OLTT (1-compartment); format: in vivo
Method: Oral Lipid Tolerance Test in the mouse was carried out in a similar way to rats.
as §1
as §3, with “4h” for “11h”, “As with the rat, the” for “The”, “parameters. Correlation between Cl and V parameters was allowed.” for “parameters.”, “proportional” for “proportional plus additive”

plasma TAG [4] = experiment: PK/PD model of plasma TAG after Oral Lipid Tolerance Test (corn oil); details: rat OLTT, free plasma concentration, read-out: IC50 (free in vivo IC50, inhibition of exogenous TAG contribution to plasma)
Method: as §2
Biological plausibility combined with stable parameter estimation was used in the evaluation of different potential PK/PD models to help select the optimal one. The key components of the final PK/PD TAG model are described in Figure 1. The introduction of exogenous TAG into the system is represented by a first order process from the lipid depot compartment (assumed to be the gut) to the central compartment (plasma). A lag time to accommodate the time delay from ingestion of the fatty meal to the resulting increase in plasma TAG was needed. In addition, there is an endogenous production and removal of TAG from plasma described with a turnover model controlled by the turnover rate (kin) (production) and the fractional turnover rate (kout) (loss). Turnover model was reparameterized using the relationship of kin to baseline plasma TAG (R0) (R0 = kin/kout) to increase numerical stability.
KaTAG is the absorption rate of exogenous TAG into plasma, VTAG is the volume of distribution of exogenous TAG, and TlagTAG is the time delay for the absorption of TAG from the SMM. […]

plasma TAG [5] = details: human SAD OLTT study, iAUC analysis of plasma TAG vs plasma concentration at start of meal test; read-out: in vivo IC50, previously published; cited from earlier work
plasma TAG [6] = system: plasma TAG; set-up: method as in PMID 23116186; details: cited from earlier work
[7] = set-up: method as in PMID 23116186; details: human plasma; cited from earlier work
[8] = system: DGAT1 (in liver microsomes); set-up: method as in Barlind_2012; details: human liver microsomes; ref Barlind_2012; read-out: In vitro potency (IC50) against DGAT1; cited from earlier work
[9] = system: DGAT1 (in liver microsomes); set-up: method as in Barlind_2012; details: rat liver microsomes; ref Barlind_2012; read-out: In vitro potency (IC50) against DGAT1; cited from earlier work
[10] = system: DGAT1 (in liver microsomes); set-up: method as in Barlind_2012; details: mouse liver microsomes; ref Barlind_2012; read-out: In vitro potency (IC50) against DGAT1; cited from earlier work
[11] = system: HuTu 80 (Human gastrointestinal tumor cell line); set-up: method as in Barlind_2012; details: HuTu 80 cells; ref Barlind_2012; read-out: In vitro potency (IC50) in HuTu 80; cited from earlier work
[12] = human; cited from earlier work
[13] = rat plasma; cited from earlier work
[14] = mouse plasma; cited from earlier work
plasma TAG [15] = experiment: PK/PD model of plasma TAG after Oral Lipid Tolerance Test (Intralipos 20%)
plasma TAG [16] = experiment: PK/PD model of plasma TAG after Oral Lipid Tolerance Test (standardized mixed meal)
[17] = using free concentrations in plasma

Cc1nc(C)c(-c2ccc(C3CCC(CC(=O)O)CC3)cc2)nc1C(N)=O (stereo not drawn) [AZD7687]
Cl (tvCL, apparent clearance) [1, 17]: 28.1 L/h
V2 (tvV2, peripheral volume of distribution) [1, 17]: 136.8 L
Tmax ([1]; male, plasma, post dose, oral, read-out: T max in plasma): ≤ 1 h
Vd ([1]; male, oral, using free concentrations in plasma, read-out: V (tvV1, central volume of distribution)): 320 L
IIV V ([2]; in vivo): 11.7%
CL/F ([2]; male, Han-Wistar, oral, supplement, free concentrations in plasma, read-out: tvCl (apparent clearance) (converted)): 12.2 mL/min/kg
clearance ([2]; male, Han-Wistar, plasma, oral, Table 1, free concentrations): 12.2 mL/min
V ([3]; Table 1, free concentrations): 13.14 L
CL/F ([3]; male, ICR, oral, supplement, free concentrations in plasma, read-out: tvCl (apparent clearance) (converted)): 36.2 mL/min/kg
Vd ([3]; male, ICR, oral, supplement, free concentrations in plasma, read-out: tvV (apparent volume of distribution)): 13.1 L/kg
clearance ([3]; male, ICR, plasma, oral, Table 1, free concentrations): 36.2 mL/min
IC50 (plasma TAG [4]): 162 nM
IC50 (plasma TAG [5]): 20 nM
IC50 (plasma TAG [6]; rat OLTT study, single time point data for plasma TAG and PK, read-out: in vivo IC50, previously published): 42 nM
effect on TAG excursion after OLTT (plasma TAG [6]; rats, exposure dependant): reduces the TAG excursion
free fraction (fu) [7]: 0.055
IC50 [8]: 70 nM
IC50 [9]: 150 nM
IC50 [10]: 100 nM
IC50 [11]: 10 nM
side effects leading to stop of clinical development [12]: intolerable side effects
free fraction (fu) [13]: 0.03
free fraction (fu) [14]: 0.1
IC50 (plasma TAG [15]; Mus musculus, po, read-out: IC50 (free in vivo IC50, inhibition of exogenous TAG contribution to plasma), mouse OLTT, free plasma concentration): 81 nM
IC50 (plasma TAG [15]; read-out: IC50 (free in vivo IC50, inhibition of exogenous TAG contribution to plasma), mouse OLTT, free plasma concentration): 80 nM
IC50 (plasma TAG [16]; Homo sapiens, po, read-out: IC50 (free in vivo IC50, inhibition of exogenous TAG contribution to plasma), human OLTT, free plasma concentration): 8 nM
IC50 (plasma TAG [16]; read-out: IC50 (free in vivo IC50, inhibition of exogenous TAG contribution to plasma), human OLTT, free plasma concentration): 7.8 nM
